≈ marks a conversion by molar mass, not a printed value. Like-named read-outs stand apart in the source and are kept apart here.
How the values were obtained:
[1] = tested on: vancomycin-resistant Enterococcus faecalis (VRE); assay: Growth inhibition assay, minimum inhibitory concentration against VRE; assay type: cell-based
Procedure: (§1) Growth Inhibition Assays. Compounds were prepared in DMSO to a concentration of 10 mM. DMSO was used as a vehicle negative control, and vancomycin (MRSA) and ampicillin (VRE) were also prepared as positive controls for minimum inhibitory concentration (MIC) tests. Compounds were tested for antimicrobial activity against MRSA and VRE at 100, 50, 25, 12.5, 6.25, 3.13, 1.56, 0.78, and 0.39 μM. MRSA was grown in tryptic soy broth and VRE was grown in brain heart infusion medium. Overnight cultures of bacteria were diluted to OD600=0.1 and 50 μL of cell culture broth was added to each well. Media (50 μL) containing compound at the appropriate concentration was then added to the cell cultures and the plates were sealed and incubated at 37° C. overnight. Plates were then read for OD600 using a PerkinElmer Envision 2100 multimode plate reader (PerkinElmer, Waltham, MA, USA). […] All samples were tested in triplicate.
(§2) Determination of Minimum Inhibitory Concentration. All compounds were freshly dissolved in DMSO at a stock solution of 10 mM. DMSO (solvent vehicle) was used as a negative control and vancomycin and ampicillin were used as positive controls for MRSA and VRE, respectively. Compounds were dispensed into 96-well plates at 100, 50, 25, 12.5, 6.25, 3.13, 1.56, 0.78, and 0.39 μM. Overnight cultures of MRSA grown in tryptic soy broth and VRE grown in brain heart infusion medium were diluted to OD600 of 0.1, and 50 μL of fresh cell culture broth was added to each well. The plates were sealed and incubated at 37° C. overnight. Plates were then monitored for OD600 using a PerkinElmer Envision 2100 multimode plate reader (PerkinElmer, Waltham, MA, USA).

[2] = tested on: methicillin-resistant Staphylococcus aureus (MRSA); assay: Growth inhibition assay, minimum inhibitory concentration against MRSA; assay type: cell-based; details: for MIC: Staphylococcus aureus
Procedure: as §1, §2

lipid II in MRSA = assay: Accumulation of lipid II in MRSA, LC-MS of de-lipidated lipid II; assay type: cell-based, Staphylococcus aureus; details: compared to DMSO
Text: (§3) FIGS. 21A-21D show (FIG. 21A) SYTOX Green fluorescence assay for antibiotic-induced bacterial membrane permeability. Vancomycin was used as a negative control, and daptomycin was used as a positive control. Error bars represent the standard error of the mean across 3 biological replicates. […] Vancomycin was used as a positive control. The UDP-MurNAc-pentapeptide was identified by mass spectrometry, with an [M+H]^+ of 1150.3590. Error bars represent the standard deviation of three biological replicates. […] Lipid II cannot rescue bacteria grown in the presence of ciprofloxacin (an inhibitor of DNA replication). Data from three biological replicates are shown. […] Vancomycin was used as a positive control. Lipid II was boiled to remove the lipid tail, and de-lipidated lipid II was quantified by mass spectrometry, with an [M+H]^+ of 1331.5362. Error bars represent the standard deviation of three biological replicates.
Lipid II is a crucial peptidoglycan building block downstream of UDP-MurNAc-pentapeptide and is the target of several antibiotics, including vancomycin. Bacteria were grown in the presence of lethal concentrations of antibiotics with and without supplementation of lipid II into the media. […] These lipids are the targets of numerous antibiotics. […] The lipid tail of lipid II can be removed by boiling in acidic conditions, allowing quantification by LC-MS. […]

[3] = tested on: UDP-MurNAc-pentapeptide in MRSA; assay: Accumulation of cell wall precursor UDP-MurNAc-pentapeptide in MRSA; assay type: cell-based, Staphylococcus aureus; details: compared to DMSO
Text: (§4) FIGS. 21A-21D show (FIG. 21A) SYTOX Green fluorescence assay for antibiotic-induced bacterial membrane permeability. Vancomycin was used as a negative control, and daptomycin was used as a positive control. Error bars represent the standard error of the mean across 3 biological replicates. […] Vancomycin was used as a positive control. […] Error bars represent the standard deviation of three biological replicates. […] Data from three biological replicates are shown. […] Vancomycin was used as a positive control. […] Error bars represent the standard deviation of three biological replicates.
(§5) The effects of compounds of Formula I on the bacterial cell wall were thus investigated. […] The effects of compounds of Formula I on cell wall biosynthesis was investigated by looking for accumulation of the cell wall precursor molecule UDP-MurNAc-pentapeptide (FIG. 21B).

MRSA [4] = assay: Lipid II supplementation rescue of MRSA growth; assay type: cell-based, Staphylococcus aureus; details: lethal concentrations of antibiotic, with lipid II in the media
Text: as §3
Lipid II is a crucial peptidoglycan building block downstream of UDP-MurNAc-pentapeptide and is the target of several antibiotics, including vancomycin. Bacteria were grown in the presence of lethal concentrations of antibiotics with and without supplementation of lipid II into the media. […] These lipids are the targets of numerous antibiotics. Compounds that bind to lipid II are known to result in its accumulation in cells, while compounds that bind to C55-P or C55-PP result in a reduction in lipid II levels. […] The lipid tail of lipid II can be removed by boiling in acidic conditions, allowing quantification by LC-MS. Following this protocol, an accumulation of a mass matching de-lipidated lipid II when bacteria were treated with either compounds of Formula I or vancomycin (FIG. 21D) was observed. The identity of this molecule was confirmed by tandem mass spectrometry and compared to published fragmentation data. Without being bound by theory, it is believed that compounds of Formula I target the bacterial cell wall by binding to lipid II and preventing its polymerization and cross-linking into peptidoglycan.

MRSA [5] = assay: SYTOX Green fluorescence assay for bacterial membrane permeability; assay type: cell-based, Staphylococcus aureus
Text: as §4, §5

MRSA [6] = details: after 30 days, identical conditions
Text: Fold change in MIC for one culture grown in the presence of sub-inhibitory levels of ciprofloxacin for 30 days is shown as a positive control.
An attempt to culture MRSA mutants resistant to compounds of Formula I was made by subculturing two independent cultures of bacteria continuously in the presence of non-lethal concentrations of 5.

[7] = Enterococcus faecalis, Table 6, read-out: Minimal inhibitory concentrations, E. faecalis (vancomycin resistant)
[8] = Table 6, read-out: Minimal inhibitory concentrations, S. aureus (methicillin resistant)

## lumiquinone A [compound 3, reference compound]
[1]
  antibiotic activity against VRE (in words): little to no activity
[2]
  antibiotic activity against MRSA (in words): little to no activity

## CC(C)c1c(O)cc(/C=C/c2ccccc2)cc1O [compound 1, tapinarof, reference compound]
[1]; [7]
  MIC: 51 µM (≈ 13 µg/mL)
[1]; read-out: MIC
  MIC: 50.5 µM (≈ 12.8 µg/mL)
[2]; [8]
  MIC: 27 µM (≈ 6.87 µg/mL)
[2]; read-out: MIC
  MIC: 27 µM (≈ 6.87 µg/mL)

## CC(C)C1=C(O)C(=O)C(/C=C/c2ccccc2)=C(c2c(/C=C/c3ccccc3)cc(O)c(C(C)C)c2O)C1=O [compound 5, duotap-520]
Lipid II in MRSA
  accumulation of lipid II (de-lipidated lipid II): Accumulation
[3]
  level of UDP-MurNAc-pentapeptide: Accumulation
MRSA [4]
  restoration of MRSA growth by lipid II supplementation: restore growth

## CN[C@H](CC(C)C)C(=O)N[C@H]1C(=O)N[C@@H](CC(N)=O)C(=O)N[C@H]2C(=O)N[C@H]3C(=O)N[C@H](C(=O)N[C@H](C(=O)O)c4cc(O)cc(O)c4-c4cc3ccc4O)[C@H](O)c3ccc(c(Cl)c3)Oc3cc2cc(c3O[C@@H]2O[C@H](CO)[C@@H](O)[C@H](O)[C@H]2O[C@H]2C[C@](C)(N)[C@H](O)[C@H](C)O2)Oc2ccc(cc2Cl)[C@H]1O [vancomycin, reference compound]
Lipid II in MRSA
  accumulation of lipid II (de-lipidated lipid II): accumulation
[3]
  level of UDP-MurNAc-pentapeptide: significant increase
MRSA [4]
  restoration of MRSA growth by lipid II supplementation: restored MRSA growth to antibiotic-free levels

## O=C1C=C(O)C(=O)C(/C=C/c2ccccc2)=C1c1c(O)cc(O)cc1/C=C/c1ccccc1 [compound 8, duotap-436]
[1]
  activity against VRE: 6 µg/mL
  antibiotic activity against VRE (in words): significantly enhanced antibiotic activity compared to 6
[1]; [7]
  MIC: 6 µM (≈ 2.62 µg/mL)
[2]
  antibiotic activity against MRSA (in words): significantly enhanced antibiotic activity compared to 6
[2]; [8]
  MIC: 4 µM (≈ 1.75 µg/mL)

## O=C1C=C(O)C(=O)C(/C=C/c2ccc(O)cc2)=C1c1c(O)cc(O)cc1/C=C/c1ccc(O)cc1 [compound 9, duotap-468]
[1]
  antibiotic activity against VRE (in words): no enhancement of activity
[1]; [7]
  MIC: > 100 µM
[2]
  antibiotic activity against MRSA (in words): no enhancement of activity
[2]; [8]
  MIC: > 100 µM

## CCCCCCCCCC(=O)N[C@@H](Cc1c[nH]c2ccccc12)C(=O)N[C@H](CC(N)=O)C(=O)N[C@@H](CC(=O)O)C(=O)N[C@@H]1C(=O)NCC(=O)N[C@@H](CCCN)C(=O)N[C@@H](CC(=O)O)C(=O)N[C@H](C)C(=O)N[C@@H](CC(=O)O)C(=O)NCC(=O)N[C@H](CO)C(=O)N[C@@H]([C@H](C)CC(=O)O)C(=O)N[C@@H](CC(=O)c2ccccc2N)C(=O)O[C@@H]1C [daptomycin]
MRSA [5]
  membrane permeability: increase in membrane permeability

## Oc1cc(O)cc(/C=C/c2ccccc2)c1 [compound 6, pinosylvin, reference compound]
[1]; [7]
  MIC: > 100 µM
[2]; [8]
  MIC: > 100 µM

## CC(C)c1c(O)cc(C2OC2c2ccccc2)cc1O (stereo not drawn) [compound 2, stilbene epoxide, reference compound]
[1]
  antibiotic activity against VRE (in words): little to no activity
[2]
  antibiotic activity against MRSA (in words): little to no activity

## O=C(O)c1cn(C2CC2)c2cc(N3CCNCC3)c(F)cc2c1=O [ciprofloxacin]
MRSA [6]
  increase in MIC: approximately 37 fold
MRSA [4]
  restoration of MRSA growth by lipid II supplementation: not able to rescue bacterial growth

## Oc1ccc(C=Cc2cc(O)cc(O)c2)cc1 [compound 7, resveratrol, reference compound]
[1]; [7]
  MIC: 14 µM (≈ 3.2 µg/mL)
[2]; [8]
  MIC: 25 µM (≈ 5.71 µg/mL)

Reference: patent US12286398B2, “Anti-bacterial stilbene derivatives and methods of use” (YALE UNIVERSITY, priority 2019, dated 2025)
